This note sets out measurements from patent US20210121380A1, “Amino Acid Containing Oral Care Composition for Treating Caries By Reducing Lactic Acid Release in Oral Biofilms” (3M INNOVATIVE PROPERTIES COMPANY, priority 2018, published 2021).

In experiment [1] the test system is human saliva derived microcosm biofilm. The experiment in a line: Lactic acid release of biofilm grown in MCM human derived saliva biofilm system (LDH-NAD-PMS-MTT enzyme assay). Type of experiment: cell-based, lactic acid producing bacteria (human derived saliva). The note with it: for effectiveness for reducing the lactic-acid release of bacteria in a biofilm (in words): reduction by more than 40% vs control considered effective; for activity at 2.7 %: amino acid 2.7 wt. %. As to the method:
(§1) A composition was prepared by dissolving the amino acid to be tested in de-ionized water in the given amount.
(§2) Biofilms were grown in a MCM (mucine containing medium plus 1% sucrose) human derived saliva biofilm system.
(§3) A general procedure is summarized below: • 1. Four-hour incubation of bovine sample disks with saliva-mcm (mucine containing medium plus 1% sucrose) at 37° C. • 2. Fresh medium (MCM with different amino acids) for 2-hour incubation at 37° C. • 3. Fresh medium (MCM with different amino acids) for storage over night at 37° C. • 4. Second Day: Fresh medium (MCM with different amino acids) after 22 and 24 hours. • 5. Samples were taken after 26 hours biofilm growth for measurements of lactic acid release and biomass evaluation.
To determine the activity of the grown biofilm, the production of lactic acid in the supernatant (0.75 ml PBS-solution with 5% sucrose per each sample disc) is measured by using the Lactic acid dehydrogenase (LDH)—Nicotinamid-adenin-dinukleotid (NAD)—Phenazine Methosulphate (PMS)—Thiazolyl blue tetrazolium bromide (MTT)—enzyme assay. To guarantee that only freshly produced lactic acid is determined, the samples are washed (in three steps, each lasting 30 sec) in 1.5 ml PBS-solution. The production of lactic acid is evaluated by measuring the lactic acid amount at given points for 30 min. The determination points are: 0 min 15 min and 30 min. For each reading point a sample of 50 μl is taken out of each well. The lactic acid amount at each reading point is determined by using the enzyme assay described above. Lactic acid amount is calculated according to the lactic acid calibration curve.
(§4) In this experiment, the MCM human derived saliva biofilm system was used. The biofilms were grown for 26 hours in continuous presence of sucrose and different amino acids.
(Tetrazolium assays rely on reduction of a dye to a coloured formazan, in cell work by metabolically active cells.)

Experiment [2] shares this test system. Briefly: Mass of biofilm (wet biomass) grown in MCM human derived saliva biofilm system. The experiment is classed as cell-based. The note with it: read-out: Biomass [% from control]; for activity at 2.7 %: Example 1, amino acid 2.7 wt. %. The method, then: as §1, §2, §3
The mass of biofilm was determined as follows: Filter papers are put into 1.5 ml-reaction tubes and were labelled and weighted. The biofilm, that was grown on the enamel disks is carefully wiped off with filter paper. The filter paper containing the wet biofilms were placed back into the respective reaction tube and re-weighted. The wet biomass is calculated from the difference in weight.
as §4

Where [3] appears, read: Homo sapiens, Example 1, amino acid 4.0 wt. %, 26 h biofilm growth, continuous presence of sucrose and amino acid, read-out: Lactic Acid Release after 30 min [% from control].
[4] abbreviates: Example 1, amino acid 4.0 wt. %, 26 h biofilm growth.
Where [5] appears, read: Homo sapiens, Example 1, amino acid 8.0 wt. %, 26 h biofilm growth, continuous presence of sucrose and amino acid, read-out: Lactic Acid Release after 30 min [% from control].
[6] abbreviates: 26 h, Example 1, amino acid 8.0 wt. %, 26 h biofilm growth.
The mark [7] stands for this setting: Homo sapiens, Example 1, 26 h biofilm growth, continuous presence of sucrose and amino acid, read-out: Lactic Acid Release after 30 min [% from control].

The structures appear in SMILES notation.

For `C[C@H](N)C(=O)O` [Alanine, reference compound], the activity at 4 % in experiment [1] (setting [3]) was 99.7%; in experiment [2] (setting [4]), 141%.

As to `N=C(N)NCCC[C@H](N)C(=O)O` [Arginine, reference compound], the “effectiveness for reducing the lactic-acid release of bacteria in a biofilm (in words)” value in experiment [1] is given as “not effective”. The activity at 8 % in experiment [2] (26 h) amounted to 247%.

Regarding `NC(=O)C[C@H](N)C(=O)O` [Asparagine, reference compound], the activity at 0.5 % in experiment [1] (Homo sapiens, Example 1, amino acid 0.5 wt. %, 26 h biofilm growth, continuous presence of sucrose and amino acid, read-out: Lactic Acid Release after 30 min [% from control]) turned out to be 94.7%; in experiment [2] (Example 1, amino acid 0.5 wt. %, 26 h biofilm growth), 102%.

For `N[C@@H](CC(=O)O)C(=O)O` [Aspartic acid, reference compound], the activity at 0.1125 % was determined as 101% in experiment [1] (Homo sapiens, Example 1, amino acid 0.1125 wt. %, 26 h biofilm growth, continuous presence of sucrose and amino acid, read-out: Lactic Acid Release after 30 min [% from control]); 82.1% in experiment [2] (Example 1, amino acid 0.1125 wt. %, 26 h biofilm growth). Moreover, the “effectiveness for reducing the lactic-acid release of bacteria in a biofilm (in words)” value in experiment [1] is “not effective”.

For `N[C@@H](CS)C(=O)O` [Cysteine, reference compound], the activity at 0.625 % is 85.8% in experiment [1] (Homo sapiens, Example 1, amino acid 0.625 wt. %, 26 h biofilm growth, continuous presence of sucrose and amino acid, read-out: Lactic Acid Release after 30 min [% from control]); 56.2% in experiment [2] (Example 1, amino acid 0.625 wt. %, 26 h biofilm growth).

`N[C@@H](CCC(=O)O)C(=O)O` [Glutamic acid, reference compound]: the activity at 0.215 % in experiment [1] (Homo sapiens, Example 1, amino acid 0.215 wt. %, 26 h biofilm growth, continuous presence of sucrose and amino acid, read-out: Lactic Acid Release after 30 min [% from control]) was 90.4%; in experiment [2] (Example 1, amino acid 0.215 wt. %, 26 h biofilm growth) it was 80.2%.

With `NCC(=O)O` [Glycine], the activity at 0.5 % in experiment [1] (Homo sapiens, 0.5 h, Example 2, glycine 0.5 wt. %, continuous presence with sucrose, read-out: Lactic Acid Release after 30 min [% from control]) was determined as 97.5%; in experiment [2] (26 h, Example 2, glycine 0.5 wt. %), 143%. Besides, the activity at 1 % in experiment [1] (Homo sapiens, 0.5 h, Example 2, glycine 1.0 wt. %, continuous presence with sucrose, read-out: Lactic Acid Release after 30 min [% from control]) was found to be 51.6%; in experiment [2] (26 h, Example 2, glycine 1.0 wt. %) it was 146%. For the same compound, the activity at 2 % amounted to 32.3% in experiment [1] (Homo sapiens, 0.5 h, Example 2, glycine 2.0 wt. %, continuous presence with sucrose, read-out: Lactic Acid Release after 30 min [% from control]) and 96.7% in experiment [2] (26 h, Example 2, glycine 2.0 wt. %). For the same compound, the activity at 4 % stood at 1.6% in experiment [1] (Homo sapiens, 0.5 h, Example 2, glycine 4.0 wt. %, continuous presence with sucrose, read-out: Lactic Acid Release after 30 min [% from control]) and 56.2% in experiment [2] (26 h, Example 2, glycine 4.0 wt. %). The activity at 8 % stood at 5.6% in experiment [1] (Homo sapiens, 0.5 h, Example 2, glycine 8.0 wt. %, continuous presence with sucrose, read-out: Lactic Acid Release after 30 min [% from control]); 5.7% in experiment [1] (setting [5]); 77.2% in experiment [2] (setting [6]); 42.2% in experiment [2] (26 h, Example 2, glycine 8.0 wt. %). Also, in experiment [1], the “effectiveness for reducing the lactic-acid release of bacteria in a biofilm (in words)” value is “useful”.

As for `N[C@@H](Cc1c[nH]cn1)C(=O)O` [Histidine, reference compound], the activity at 3.8 % in experiment [1] (Homo sapiens, Example 1, amino acid 3.8 wt. %, 26 h biofilm growth, continuous presence of sucrose and amino acid, read-out: Lactic Acid Release after 30 min [% from control]) turned out to be 150%; in experiment [2] (Example 1, amino acid 3.8 wt. %, 26 h biofilm growth) it was 106%. For the same compound, the “effectiveness for reducing the lactic-acid release of bacteria in a biofilm (in words)” value in experiment [1] was “not effective”.

As for `CC[C@H](C)[C@H](N)C(=O)O` [Isoleucine], the figures for the activity at 4 % in experiment [1] (setting [3]) and in experiment [2] (setting [4]) were 21.9% and 104%, respectively. For the same compound, the “effectiveness for reducing the lactic-acid release of bacteria in a biofilm (in words)” value in experiment [1] is recorded as “useful”.

As for `CC(C)C[C@H](N)C(=O)O` [Leucine], the values for the activity at 2.7 % in experiment [1] (setting [7]) and in experiment [2] (26 h biofilm growth) were 36.7% and 85.9%, respectively. In addition, the “effectiveness for reducing the lactic-acid release of bacteria in a biofilm (in words)” value in experiment [1] is recorded as “useful”.

With `NCCCC[C@H](N)C(=O)O` [Lysine], in experiment [1], the “effectiveness for reducing the lactic-acid release of bacteria in a biofilm (in words)” value is reported as “useful”. Besides, the activity at 8 % in experiment [2] (26 h) amounted to 87.8%.

Regarding `CSCC[C@H](N)C(=O)O` [Methionine], the activity at 4.8 % in experiment [1] (Homo sapiens, Example 1, amino acid 4.8 wt. %, 26 h biofilm growth, continuous presence of sucrose and amino acid, read-out: Lactic Acid Release after 30 min [% from control]) stood at 26.9%; in experiment [2] (26 h, Example 1, amino acid 4.8 wt. %, 26 h biofilm growth), 84.9%. In addition, the “effectiveness for reducing the lactic-acid release of bacteria in a biofilm (in words)” value in experiment [1] is “useful”.

Take `N[C@@H](Cc1ccccc1)C(=O)O` [Phenylalanine]: the activity at 0.5 % in experiment [1] (Homo sapiens, 0.5 h, Example 3, phenylalanine 0.5 wt. %, continuous presence with sucrose, read-out: Lactic Acid Release after 30 min [% from control]) was determined as 45.9%; in experiment [2] (26 h, Example 3, phenylalanine 0.5 wt. %), 181%. Moreover, the activity at 1 % in experiment [1] (Homo sapiens, 0.5 h, Example 3, phenylalanine 1.0 wt. %, continuous presence with sucrose, read-out: Lactic Acid Release after 30 min [% from control]) worked out at 32.1%; in experiment [2] (26 h, Example 3, phenylalanine 1.0 wt. %) it was 124%. Also, the activity at 1.5 % was 16.7% in experiment [1] (Homo sapiens, 0.5 h, Example 3, phenylalanine 1.5 wt. %, continuous presence with sucrose, read-out: Lactic Acid Release after 30 min [% from control]) and 92.7% in experiment [2] (26 h, Example 3, phenylalanine 1.5 wt. %). Further, the activity at 2 % stood at 12.1% in experiment [1] (Homo sapiens, 0.5 h, Example 3, phenylalanine 2.0 wt. %, continuous presence with sucrose, read-out: Lactic Acid Release after 30 min [% from control]) and 96.5% in experiment [2] (26 h, Example 3, phenylalanine 2.0 wt. %). In addition, the activity at 2.5 % in experiment [1] (Homo sapiens, 0.5 h, Example 3, phenylalanine 2.5 wt. %, continuous presence with sucrose, read-out: Lactic Acid Release after 30 min [% from control]) is 3.5%; in experiment [2] (26 h, Example 3, phenylalanine 2.5 wt. %), 66.9%. The activity at 2.7 % in experiment [1] (setting [7]) turned out to be 8.6%; in experiment [2] (26 h biofilm growth), 136%. Further, the “effectiveness for reducing the lactic-acid release of bacteria in a biofilm (in words)” value in experiment [1] is reported as “useful”.

Consider `O=C(O)[C@@H]1CCCN1` [Proline, reference compound], for which the values for the activity at 8 % in experiment [1] (setting [5]) and in experiment [2] (setting [6]) were 74.7% and 110%, respectively. Further, the “effectiveness for reducing the lactic-acid release of bacteria in a biofilm (in words)” value in experiment [1] is given as “not effective”.

Take `N[C@@H](CO)C(=O)O` [Serine]: the activity at 2.7 % in experiment [1] (setting [7]) came to 11.8%; in experiment [2] (26 h biofilm growth) it was 84.6%. In addition, in experiment [1], the “effectiveness for reducing the lactic-acid release of bacteria in a biofilm (in words)” value is given as “useful”.

In the case of `C[C@@H](O)[C@H](N)C(=O)O` [Threonine], the activity at 8 % in experiment [1] (setting [5]) turned out to be 54.6%; in experiment [2] (Example 1, amino acid 8.0 wt. %, 26 h biofilm growth), 190%. Besides, the “effectiveness for reducing the lactic-acid release of bacteria in a biofilm (in words)” value in experiment [1] was “useful”.

For the compound `N[C@@H](Cc1c[nH]c2ccccc12)C(=O)O` [Tryptophan], the “effectiveness for reducing the lactic-acid release of bacteria in a biofilm (in words)” value in experiment [1] is “useful”. Besides, in experiment [2] (26 h), the activity at 0.25 % is 181%.

On to `N[C@@H](Cc1ccc(O)cc1)C(=O)O` [Tyrosine, reference compound], for which the activity at 0.0095 % in experiment [1] (Homo sapiens, Example 1, amino acid 0.0095 wt. %, 26 h biofilm growth, continuous presence of sucrose and amino acid, read-out: Lactic Acid Release after 30 min [% from control]) stood at 112%; in experiment [2] (Example 1, amino acid 0.0095 wt. %, 26 h biofilm growth), 95.3%. The “effectiveness for reducing the lactic-acid release of bacteria in a biofilm (in words)” value in experiment [1] was “not effective”.

`CC(C)[C@H](N)C(=O)O` [Valine]: the activity at 5 % amounted to 42.1% in experiment [1] (Homo sapiens, Example 1, amino acid 5.0 wt. %, 26 h biofilm growth, continuous presence of sucrose and amino acid, read-out: Lactic Acid Release after 30 min [% from control]); 209% in experiment [2] (Example 1, amino acid 5.0 wt. %, 26 h biofilm growth). The “effectiveness for reducing the lactic-acid release of bacteria in a biofilm (in words)” value in experiment [1] is given as “useful”.

For `NC(=O)CC[C@H](N)C(=O)O` [glutamine, reference compound], the “effectiveness for reducing the lactic-acid release of bacteria in a biofilm (in words)” value in experiment [1] is listed as “not effective”.
